# Results from patent US4110626A, “Method for improving the quality of the fragrance of perfumes using aliphatic dibasic acid diesters” (Shiseido Co., Ltd., priority 1976, dated 1978).
# Where a name gives a salt, the structure may show the parent alone.
# Assays:
# [1] = Fixing effect: analysis of residue on paper after standing 15 minutes; type: physicochemical
# Experimental: (§1) Then, the fixing effect was evaluated by a second head space gas chromatographic (II) method (HS-GC (II)). Specifically, a perfume containing 0.7 g of a perfume controlling agent was coated on a sheet of paper having a predetermined thickness, area (11.5 × 7.5 cm), and weight (about 2.9 g). The coated paper was allowed to stand for 15 minutes in an open space in a room (6 × 4 × 2.5 m) maintained at a humidity of 50% at a ventilation rate of 1,500 m^3 /hr. The paper was then transferred into a 1,000 ml Erlenmeyer flask, and the flask was tightly sealed. After a lapse of 15 minutes, the volatilized portion was collected and analyzed by gas chromatography under the conditions shown Table A above. Furthermore, the residue on the paper was extracted with acetone, and analyzed by gas chromatography using conditions shown in Table B below.
# Column: 5% FFAP (free fatty acid polyester; a trade name for a product of Nippon Chromato Co., Ltd.) on diatomaceous earth (2m)
# Column Temperature: 80° C (5 minutes, isothermal) to 220° C (4° C/min.)
# Injector Temperature: 260° C
# Detector Temperature: 260° C
# Detector: Flame Ionization Detector
# Carrier Gas: He (40 ml/min.)
# (§2) The composition of the model perfume used was as follows:
# The values shown in Table 5 above were obtained by calculating the areas of the perfumes while the area of musk ketone measured by gas chromatography was taken as 1. (This calculating procedure was adopted because musk ketone has a high boiling point, and scarcely volatilizes at 30° C.)
# [2] = Fixing effect: HS-GC (II), analysis of volatilized portion after standing 15 minutes; type: physicochemical; conditions: controlling agent 15%, model perfume 5%
# Experimental: as §1, §2
# Model Perfume: 5% by weight
# 95% Ethanol: 95% by weight
# The composition of the perfume containing a perfume controlling agent was as follows:
# Perfume Controlling Agent: 15% by weight
# 95% Ethanol: 80% by weight
# [3] = system: Pseudomonas aeruginosa; assay: Microorganism assimilation; conditions: for OD (turbidity): 660 nm; for Assimilation by microorganism: conclusion from Table 8
# Experimental: 100 ml of the above liquid medium was placed in a 500 ml Sakaguchi flask, and sterilized at 120° C for 15 minutes in an autoclave in a customary manner. After cooling, the culture medium was inoculated with a prescribed amount of a suspension of the pre-cultured microorganism and cultivated at 30° C with shaking 120 times per minute.
# Changes with time in the pH, turbidity, number of living cells were determined.
# The turbidity was determined as follows: 2 ml of the culture broth was collected, and the precipitate was separated with a centrifugal separator. The precipitate was washed with acetone, and suspended in 2 ml of distilled water. The turbidity (OD) of the suspension at 660 nm was measured.
# [4] = Acute oral toxicity (LD50); conditions: acute oral toxicity
# [5] = Citral (not present: 1.5), area of musk ketone taken as 1
# [6] = Limonene (not present: 0.3), area of musk ketone taken as 1
# [7] = Linalool (not present: 6.4), area of musk ketone taken as 1
# [8] = Linalyl Acetate (not present: 5.1), area of musk ketone taken as 1
# [9] = Musk Ketone (reference, taken as 1; not present: 1.0)
# [10] = Pinene (not present: 0.0), area of musk ketone taken as 1
# [11] = Linalyl Acetate (not present: 39.0%)
# [12] = Musk ketone (not present: 0.0%)
Compound,Analysis of Volatilized Portion after Standing 15 Minutes (HS-GC (II) Method) ([2]; Citral (not present: 3.5%)) [%],Analysis of Volatilized Portion after Standing 15 Minutes (HS-GC (II) Method) ([2]; Limonene (not present: 2.6%)) [%],Analysis of Volatilized Portion after Standing 15 Minutes (HS-GC (II) Method) ([2]; Linalool (not present: 45.2%)) [%],"Analysis of Volatilized Portion after Standing 15 Minutes (HS-GC (II) Method) [2, 11] [%]","Analysis of Volatilized Portion after Standing 15 Minutes (HS-GC (II) Method) [2, 12] [%]",Analysis of Volatilized Portion after Standing 15 Minutes (HS-GC (II) Method) ([2]; Pinene (not present: 0.2%)) [%],pH ([3]; 0 days elapsed),Number of Living Cells ([3]; 2 days elapsed),pH ([3]; 2 days elapsed),OD (turbidity) ([3]; 2 days elapsed),Number of Living Cells ([3]; 7 days elapsed),pH ([3]; 7 days elapsed),OD (turbidity) ([3]; 7 days elapsed),Number of Living Cells ([3]; 14 days elapsed),pH ([3]; 14 days elapsed),OD (turbidity) ([3]; 14 days elapsed),Assimilation by microorganism [3],LD50 [4] [mL/kg],further results
"O=C(OCc1ccccc1)c1ccccc1 [Benzyl Benzoate, benzyl benzoate]",1.6,31.3,37.7,20.6,0.0,1.3,,,,,,,,,,,,,"Analysis of Residue on Paper after Standing 15 Minutes (Area Ratio) [1, 5]: 1.8; Analysis of Residue on Paper after Standing 15 Minutes (Area Ratio) [1, 6]: 0.38; Analysis of Residue on Paper after Standing 15 Minutes (Area Ratio) [1, 7]: 8.1; Analysis of Residue on Paper after Standing 15 Minutes (Area Ratio) [1, 8]: 8; Analysis of Residue on Paper after Standing 15 Minutes (Area Ratio) [1, 9]: 1; Analysis of Residue on Paper after Standing 15 Minutes (Area Ratio) [1, 10]: 0"
"CCCCC(CC)COC(=O)CCCCC(=O)OCC(CC)CCCC (stereo not drawn) [Di-2-ethylhexyl Adipate, di-2-ethylhexyl adipate]",,,,,,,6.86,1.3 × 10^6,6.60,0.008,5.0 × 10^7,6.30,0.01,1.4 × 10^9,6.10,0.15,gradually assimilated as time passed,,
"CCOC(=O)c1ccccc1C(=O)OCC [Diethyl Phthalate, diethyl phthalate]",1.2,31.3,40.5,18.4,0.0,0.9,6.86,2.5 × 10^6,6.86,0.001,4.2 × 10^4,6.86,0.001,5.2 × 10^5,6.86,0,not assimilated,,
"CC(C)OC(=O)CCCCC(=O)OC(C)C [Diisopropyl Adipate, diisopropyl adipate]",,,,,,,6.90,4.0 × 10^5,6.90,0.005,1.9 × 10^7,5.32,0.26,< 10^3,4.22,0.46,assimilated very well,,
CCCCCCCCCCCCCC(=O)OC(C)C [Isopropyl Myristate],,,,,,,,,,,,,,,,,,> 25,
CC(O)CO (stereo not drawn) [Propylene Glycol],,,,,,,,,,,,,,,,,,23.9,
CCOC(=O)CC(O)(CC(=O)OCC)C(=O)OCC [Triethyl Citrate],,,,,,,,,,,,,,,,,,> 25,
dipropylene glycol,3.7,2.7,42.8,40.0,0.0,0.2,6.84,3.1 × 10^6,6.84,0,7.2 × 10^7,6.82,0.005,4.7 × 10^6,6.82,0,not assimilated,17.6,"Analysis of Residue on Paper after Standing 15 Minutes (Area Ratio) [1, 5]: 1.1; Analysis of Residue on Paper after Standing 15 Minutes (Area Ratio) [1, 6]: 0; Analysis of Residue on Paper after Standing 15 Minutes (Area Ratio) [1, 7]: 4.9; Analysis of Residue on Paper after Standing 15 Minutes (Area Ratio) [1, 8]: 4.1; Analysis of Residue on Paper after Standing 15 Minutes (Area Ratio) [1, 9]: 1; Analysis of Residue on Paper after Standing 15 Minutes (Area Ratio) [1, 10]: 0"
